Measurements reported in PubChem BioAssay AID2423 (Broad Institute, 2010).
Several values for one entry are separate records, joined by “and”; a condition that tells them apart may be missing. Identical values can stand only once. Inconclusive results are not listed. Activity calls are given as the source filed them. The rule behind the calls is not given here.

Test system: C. albicans CaCi-8 + fluconazole, Alamar Blue growth, 48 h
Experiment: resistant C. albicans growth inhibition with fluconazole, dose response, CaCi-8 strain, Alamar Blue fluorescence (AID 2423)

Compared with `Nc1ncnc(Sc2ncccn2)c1[N+](=O)[O-]`, `Cc1ccc(S(=O)(=O)c2ncccc2[N+](=O)[O-])cc1` is 2.3-fold higher in EC50: 484 nM for the first, 1090 nM for the second.

`Cc1ccc(Nc2nc(Cl)nc(NC(C)(C)C)n2)cc1` and `Cc1ccc(Nc2nc(N)c([N+](=O)[O-])c(N3CCC(C)CC3)n2)cc1C` are within 1.5-fold of each other in EC50: 2620 nM for the first, 3640 nM for the second.

First: Cn1c(NN)nc2sc3c(c2c1=O)CCC3
Second: CCOC(=O)C1CCN(C(=O)c2ccc3c(=O)n4nc(Nc5cc(C)ccc5C)sc4nc3c2)CC1
The EC50 of the first is 25-fold higher: 10100 nM for the first, 400 nM for the second.

Going from `CCOC(=O)Cc1csc(NC(=O)CSc2nnc(-c3ccc(NS(=O)(=O)CC)cc3)o2)n1` to `O=C(Nc1nnc(-c2ccncc2)o1)c1ccc2ccccc2c1`, the EC50 rises from 150 nM to 1440 nM (9.6-fold).

Compared with `O=C(/C=C/c1ccco1)Nc1cccc(-c2nc3ccccc3[nH]2)c1`, `NC(=O)c1ccc(Nc2nnc(-c3ccc(O)cc3)c3ccccc23)cc1` is 6.3-fold higher in EC50: 1250 nM for the first, 7930 nM for the second. The first is the more potent here.

Going from `O=C(NNC1=C(C(=O)C(F)(F)F)CCC1)c1ccc(Cl)cc1` to `CCCC(=O)NC(=S)NNC(=O)c1ccc([N+](=O)[O-])cc1`, the EC50 rises from 1040 nM to 4900 nM (4.7-fold). The first is the more potent here.

First: COc1ccc(-c2cc(-c3cc(F)ccc3O)[nH]n2)cc1OC
Second: COc1cccc(/C=N/NC(=O)c2[nH]nc3c2CCc2ccccc2-3)c1O
The EC50 of the first is 16-fold higher: 13900 nM for the first, 857 nM for the second. The second is the more potent here.

First: Cc1nn(C)c(C)c1/C=C/C(=O)c1ccc(Cl)cc1Cl
Second: O=C(COc1ccccc1)NNC(=S)NC(=O)c1ccc(Cl)cc1Cl
The EC50 of the first is 3-fold lower: 1640 nM for the first, 4840 nM for the second. The first is the more potent here.

`Cc1nnc(NC(=O)c2c(-c3ccccc3Cl)noc2C)s1` and `Cc1ccc(-c2nnc(NC(=O)c3ccc([N+](=O)[O-])o3)o2)c(C)c1` are within 1.5-fold of each other in EC50: 3080 nM for the first, 2160 nM for the second.

Compared with `Cc1cc(C)c(S(=O)(=O)Nc2cccc(-n3cnnn3)c2)c(C)c1`, `Cc1cccc(N2CCc3c2nc2ccc(Br)cc2c3N)c1` is 8.1-fold lower in EC50: 13000 nM for the first, 1610 nM for the second.

Going from `COc1ccc(-n2cc(-c3ccc(C)cc3)[n+]3c2SCC3)cc1` to `CC[n+]1c(/C=C2\Sc3ccccc3N2C)ccc2cccc(C)c21`, the EC50 falls from 2940 nM to under 120 nM.

Going from `S=c1nc[nH]c2c1cnn2Cc1ccccc1` to `N/C(Cc1ccccc1)=N\OC(=O)c1cccc2ccccc12`, the EC50 falls from 2330 nM to 1400 nM (1.7-fold). The second is the more potent here.

`CCC1=NN(C(=O)c2ccccc2O)C(O)(c2ccccc2)C1` (stereo not given) and `CC[n+]1c(/C=C/N(C)c2ccccc2)oc2ccccc21` are within 1.5-fold of each other in EC50: 7370 nM for the first, 7620 nM for the second.

`COc1ccc(C(=O)NC(=S)NNC(=O)CCc2ccccc2)cc1` and `O=C1C2CCN(CC2)C1Cc1ccc(OCc2ccccc2)cc1` (stereo not given) are within 1.5-fold of each other in EC50: 3200 nM for the first, 2190 nM for the second.

`O=C(NCc1ccccc1)C1c2ccccc2Oc2ccccc21` and `CN1CCN(CCCNC(=O)c2ccc(/C=C3\Oc4ccccc4N(Cc4ccc(Cl)cc4)C3=O)cc2)CC1` are within 1.5-fold of each other in EC50: 6030 nM for the first, 7660 nM for the second.

Compared with `C=CCn1c(O)c(N=NC(=S)Nc2ccccc2C)c2cc(S(=O)(=O)N3CCOCC3)ccc21`, `COc1ccc(-n2nc(C(=O)NCC(=O)N3CCN(c4ccc(F)cc4)CC3)c3ccccc3c2=O)c(OC)c1` is 1.5-fold lower in EC50: 1190 nM for the first, 773 nM for the second.

Going from `Oc1c(C(Nc2cccc(C(F)(F)F)c2)c2ccncc2)ccc2cccnc12` (stereo not given) to `CCC(=O)NC(c1ccco1)c1cc(Cl)c2cccnc2c1O` (stereo not given), the EC50 falls from 2440 nM to 788 nM (3.1-fold).

Compared with `COc1cc([N+](=O)[O-])cc(/C=N/NC(=O)c2ccc(NC(=O)c3ccc(C)cc3)cc2)c1O`, `CCC(C)c1ccc(O)c(NC(=S)NC(=O)c2cccnc2)c1` (stereo not given) is 2.7-fold lower in EC50: 2340 nM for the first, 878 nM for the second.

Going from `O=C1/C(=C/c2cccnc2)CCc2c1[nH]c1ccccc21` to `CC[n+]1c(/C=C/N(C)c2ccccc2)sc2ccc(Cl)cc21`, the EC50 rises from 1240 nM to 3150 nM (2.5-fold). The first is the more potent here.

Going from `CC1(C)CC(N2CCCC2)=CC(=[N+]2CCCC2)C1` to `CS/C(=C\[N+](=O)[O-])Nc1ccc(Cl)cc1`, the EC50 falls from 6310 nM to 4020 nM (1.6-fold). The second is the more potent here.

For `CC1CCC(C(C)C)C(OC(=O)Cn2c(-c3ccc(Br)cc3)[n+](C)c3ccccc32)C1` (stereo not given), the EC50 was 534 nM and 752 nM.
With `CCOC(=O)c1ccccc1OCc1cc(/C=N/n2cnnc2)ccc1OC` the EC50 was > 15000 nM (inactive).
With `C/C(CC(=O)Nc1cc(C)ccn1)=N\NC(=O)c1cccc(C)c1O` the EC50 was > 16000 nM (inactive).
In the case of `O=S(=O)(Cc1ccc(Cl)cc1)N1CCN(Cc2ccccc2)CC1`, the EC50 is reported as > 16000 nM (inactive).
In the case of `O=C(NCCc1ccccc1)c1c(O)c2cccc3c2n(c1=O)CC3`, the EC50 is reported as > 15000 nM (inactive).
In the case of `CCN(CC)S(=O)(=O)c1ccc(N/N=C(\C)c2ccc(OC)cc2O)nc1`, the EC50 is reported as > 16000 nM (inactive).
With `C(=N\NC1=Nc2cccc3cccc1c23)/c1ccccn1` the EC50 was > 16000 nM (inactive).
With `O=C(CN1C(=O)/C(=C/c2ccccc2)SC1=S)NNC(=O)c1ccccc1O` the EC50 was > 16000 nM (inactive).
For `CC(=O)c1cnc2cc(-c3cccc(Br)c3)nn2c1C`, the EC50 was > 15000 nM (inactive).
With `CCn1c(=S)[nH]c2scc(-c3cccs3)c2c1=O` the EC50 was > 16000 nM (inactive).
With `CC1CCc2c(sc3ncnc(N4CCOCC4)c23)C1` (stereo not given) the EC50 was > 16000 nM (inactive).
For `CCN(c1ccccc1)S(=O)(=O)c1ccc(Cl)c(NC(=O)CN2C(=O)NC3(CCCC3)C2=O)c1`, the EC50 was > 15000 nM (inactive).
In the case of `O=C(N/N=C/c1ccncc1)c1cc2ccccc2cc1O`, the EC50 is reported as > 15000 nM (inactive).
`O=C(CSCc1cccc(CSCC(=O)Nc2ccccc2)n1)Nc1ccccc1` was tested, and the EC50 was > 15000 nM (inactive).
With `C/C(=N\NC(=O)C1CCCC1)c1ccc(Cl)c(Cl)c1` the EC50 was > 15000 nM (inactive).
